Assay [1] relates to NCI-1703. Kind of assay: cell viability of NCI-1703 cells, 1 and 10 uM of each erlotinib derivative, and IC50. Type of assay: cell-based. The following applies: Homo sapiens. As for the experimental part:
[Worded in the source for another cell line; this cell line is reported under the same test.] (§1) Sorafenib (Nexavar), erlotinib (Tarceva) and Paclitaxel were kindly provided by Bayer Pharmaceuticals (Pittsburgh, Pa., USA) and Roche Pharmaceuticals (Basel, Switzerland) respectively. Okadaic acid (OA) was purchased from Cayman Chemical (Ann Arbor, Mich., USA) and z-VAD-fmk was obtained from Sigma (St. Louis, Mo., USA). For in vitro studies, drugs at various concentrations were dissolved in dimethyl sulfoxide (DMSO), and added to cells in Dulbecco's modified Eagle's medium (DMEM) or Roswell Park Memorial Institute (RPMI) containing 5% fetal bovine serum (FBS).
(§2) The Sk-Hep1, PLC/PRF/5 (PLC) and Hep3B cell lines were obtained from American Type Culture Collection (ATCC; Manassas, Va., USA). The Huh-7 HCC cell line was obtained from the Health Science Research Resources Bank (HSRRB; Osaka, Japan; JCRB0403). Cells were maintained in DMEM supplemented with 10% FBS in a 37° C. humidified incubator in an atmosphere of 5% CO^2 in air.

The target in assay [2] is T1, SET-PP2Ac binding (Homo sapiens, UniProt Q01105).
T1 construct: His; purchased Genway (SET-His); Abnova (PP2Ac-GST) GWB-ATG319; H00005515
T1 sequence (Q01105 1-277 isoform Q01105-2): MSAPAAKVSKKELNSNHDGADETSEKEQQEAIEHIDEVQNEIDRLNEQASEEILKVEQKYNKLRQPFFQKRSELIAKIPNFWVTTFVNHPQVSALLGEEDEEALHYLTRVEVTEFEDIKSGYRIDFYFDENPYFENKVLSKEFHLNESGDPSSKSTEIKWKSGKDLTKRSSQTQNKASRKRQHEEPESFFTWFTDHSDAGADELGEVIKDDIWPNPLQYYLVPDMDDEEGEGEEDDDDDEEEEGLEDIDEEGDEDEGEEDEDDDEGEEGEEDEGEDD
Kind of assay: disruption of SET-PP2Ac binding (surface plasmon resonance, co-IP). As for the experimental part:
Binding affinities of full-length SET and truncated SET to PP2Ac and the effect of the erlotinib derivatives of the present invention on disrupting SET and PP2Ac were analyzed. PP2Ac-GST recombinant protein was bound in the CMS chip pre-coated with GST-capture antibodies. Sensorgrams were generated by injecting several concentrations of the erlotinib derivatives of the present invention mixed with fixed-concentration of SET recombinant protein, or the mixture of different concentration of truncated SET proteins in a fixed-dose EMQA. PP2Ac-GST recombinant protein used for this experiment was purchased from Abnova (H00005515) and SET-His recombinant protein was obtained from Genway (GWB-ATG319).
EMQA reactivates PP2A by disrupting the binding of SET-PP2Ac. To validate the role of SET, the present invention generated Hep3B cells with ectopic expression of myc-tagged SET by transient transfection. […] With a fixed amount of PP2Ac coated on the CM chip, the present invention tested the effects of a fixed-dose of EMQA on interfering different proportions of full-length and truncated forms of SET proteins in SPR system. […] To validate the findings of this ex vivo system, the present invention generated cells with ectopic overexpression of these two truncated forms of Flag-tagged SET proteins by transient transfections.
(SPR reads the build-up and loss of mass on a sensor chip optically.)

The test system of assay [3] is SW900. Kind of assay: cell viability of SW900 cells, 1 and 10 uM. Type of assay: cell-based. The following applies: Homo sapiens. As for the experimental part: [Worded in the source for another cell line; this cell line is reported under the same test.] as §1, §2
The subject of assay [4] is H520. The assay is described as follows: cell viability of H520 cells, 1 and 10 uM. It is filed as cell-based. The conditions noted are these: Homo sapiens, NCI-H520. As for the experimental part:
[Worded in the source for another cell line; this cell line is reported under the same test.] as §1, §2

Assay [5] relates to H2170. Kind of assay: cell viability of H2170 cells, 1 and 10 uM. Type of assay: cell-based. The following applies: Homo sapiens, NCI-H2170. As for the experimental part:
[Worded in the source for another cell line; this cell line is reported under the same test.] as §1, §2

Assay [6] relates to PP2A. Kind of assay: PP2A phosphatase activity (malachite green-phosphate assay in cell lysate). It is filed as cell-based. As for the experimental part:
The protein phosphatase activity in each cell lysate was determined by measuring the generation of free phosphate from threonine phosphopeptide using the malachite green-phosphate complex assay as described by the manufacturer (Upstate Biotechnology, Lake Placid, N.Y., USA). In brief, HCC cell lysates were first prepared in a low-detergent lysis buffer. […] After incubation for 10 min at 30° C., the malachite dye was added and free phosphate was measured by optical density at 650 nm. In order to avoid variation resulting from differences in the amount of immunoprecipitation protein between samples, the phosphatase activities were normalized to the amounts of PP2A immunoprecipitated, which were detected and quantified by immunoblot analysis for each treatment group.

Assay [7] has as its system H358. Kind of assay: cell viability of H358 cells, 1 and 10 uM. It is filed as cell-based. The following applies: Homo sapiens, NCI-H358. As for the experimental part: [Worded in the source for another cell line; this cell line is reported under the same test.] as §1, §2
For assay [8], the system named is A549. The assay is described as follows: cell viability of A549 cells, 1 and 10 uM. Type of assay: cell-based. The conditions noted are these: Homo sapiens. As for the experimental part: [Worded in the source for another cell line; this cell line is reported under the same test.] as §1, §2
For assay [9], the system named is NCI-H226. Kind of assay: cell viability of NCI-H226 cells, 1 and 10 uM. It is filed as cell-based. The following applies: Homo sapiens. As for the experimental part:
[Worded in the source for another cell line; this cell line is reported under the same test.] as §1, §2

Take `FC(F)(F)c1cc(Nc2nc3ccccc3nc2Nc2ccc(Cl)c(C(F)(F)F)c2)ccc1Cl` [TD63, N^2,N^3-bis(4-chloro-3-(trifluoromethyl)phenyl)quinoxaline-2,3-diamine]: the viability (usually a read-out of living cells in per cent, often relative to untreated cells) at 1 µM in assay [1] worked out at 54.5 ± 5.5%; in [3], 54.8 ± 3.35%; in assay [4], 28.5 ± 0.58%; in assay [5], 78.5 ± 1.28%; in assay [7] it was 66.8 ± 8.5%; in assay [8], 79.2 ± 7.8%. Further, the viability at 1 µM in assay [9] worked out at 99.9 ± 4.3%. Also, the viability at 10 µM in [1] was found to be 28.8 ± 7.9%; in [3], 3.28 ± 4.63%; in assay [4] it was 0.45 ± 0.14%; in assay [5], 9.13 ± 0.63%; in [7], 16.2 ± 1.3%; in assay [8], 21.9 ± 2.2%. For the same molecule, the viability at 10 µM in assay [9] was found to be 19.6 ± 0.4%. Moreover, in assay [2], the “minimal concentration to disrupt SET-PP2Ac binding” value is less than 100 nM. Besides, the “minimal concentration for PP2A activation” value in assay [6] is 100 to 200 nM.

Consider `FC(F)(F)Oc1ccc(Nc2nc3ccccc3nc2Nc2ccc(OC(F)(F)F)cc2)cc1` [TD65, N^2,N^3-bis(4-(trifluoromethoxy)phenyl)quinoxaline-2,3-diamine], for which the viability at 1 µM in assay [1] amounted to 53.2 ± 2.3%; in assay [3], 0.73 ± 1.32%; in assay [4], 18.5 ± 1.23%; in assay [5], 77.9 ± 3.48%; in assay [7], 27.1 ± 1.2%; in [8], 66.4 ± 6.9%. Further, the viability at 1 µM in assay [9] was found to be 46.2 ± 2.5%. For the same molecule, the viability at 10 µM in [1] amounted to 26.3 ± 1%; in assay [4] it was 0.47 ± 0.06%; in [5] it was 0.26 ± 0.1%; in assay [7] it was 18.3 ± 3%; in assay [8], 27.7 ± 2%; in [9], 14.1 ± 1.3%. Also, the “minimal concentration to disrupt SET-PP2Ac binding” value in assay [2] was less than 100 nM. In [6], the “minimal concentration for PP2A activation” value is 50 to 100 nM.

For the molecule `FS(F)(F)(F)(F)c1ccc(Nc2nc3ccccc3nc2Nc2ccc(S(F)(F)(F)(F)F)cc2)cc1` [TD68, N^2,N^3-bis(4-(Pentafluorothio)phenyl)quinoxaline-2,3-diamine], the viability at 1 µM amounted to 48.6 ± 2% in assay [1]; 3.38 ± 4.64% in assay [3]; 10.1 ± 0.85% in assay [4]; 69.39 ± 0.67% in assay [5]; 22.4 ± 1.8% in [7]; 57.3 ± 19.1% in assay [8]. In assay [9], the viability at 1 µM came to 40.2 ± 0.3%. Besides, the viability at 10 µM in assay [1] was 33.3 ± 7.1%; in assay [3] it was 0.57 ± 0.22%; in [4] it was 0.47 ± 0.11%; in assay [5] it was 0.17 ± 0.16%; in [7] it was 16.7 ± 0.8%; in assay [8], 32.9 ± 4%. Besides, the viability at 10 µM in [9] stood at 14.8 ± 0.3%. In addition, the “minimal concentration to disrupt SET-PP2Ac binding” value in assay [2] was 50 nM. Moreover, in [6], the “minimal concentration for PP2A activation” value is reported as less than 50 nM.

Take `Clc1cc(Cl)cc(Nc2nc3ccccc3nc2Cl)c1` [TD78, 3-chloro-N-(3,5-dichlorophenyl)quinoxalin-2-amine]: the viability at 1 µM in assay [1] was 70.6 ± 8.2%; in assay [3], 102 ± 6.69%; in assay [4], 108.5 ± 0.14%; in [5], 111 ± 1.69%; in assay [7] it was 98.7 ± 4.6%; in assay [8], 77.6 ± 5.8%. Moreover, the viability at 1 µM in [9] worked out at 118 ± 2.2%. The viability at 10 µM worked out at 73.2 ± 14.1% in [1]; 84.1 ± 1.12% in assay [3]; 108 ± 2.23% in assay [4]; 93.09 ± 0.66% in [5]; 90.8 ± 7.4% in assay [7]; 94.7 ± 11.3% in [8]. The viability at 10 µM in assay [9] was 111 ± 12.9%. In assay [2], the “minimal concentration to disrupt SET-PP2Ac binding” value fell in the range of 100 to 200 nM. The “minimal concentration for PP2A activation” value in assay [6] is recorded as more than 200 nM.

On to `FC(F)(F)Oc1ccc(Nc2nc3ccccc3nc2Cl)cc1` [TD80, 3-chloro-N-(4-(trifluoromethoxy)phenyl)quinoxalin-2-amine], for which the viability at 1 µM in assay [1] came to 106 ± 5.2%; in assay [3], 99.8 ± 11.8%; in assay [4], 104 ± 1.3%; in assay [5] it was 91.6 ± 5.42%; in [7], 119 ± 3.7%; in assay [8] it was 110 ± 6%. Further, the viability at 1 µM in assay [9] is 103 ± 10.7%. In addition, the viability at 10 µM amounted to 52.3 ± 2.4% in assay [1]; 88 ± 13.4% in [3]; 92.2 ± 4.42% in [4]; 87.56 ± 0.78% in assay [5]; 89.4 ± 11.9% in assay [7]; 83.4 ± 16.4% in [8]. The viability at 10 µM in assay [9] was found to be 87.8 ± 9.3%. Also, the “minimal concentration to disrupt SET-PP2Ac binding” value in assay [2] is reported as more than 200 nM. For the same molecule, in [6], the “minimal concentration for PP2A activation” value is more than 200 nM.

In the case of `FS(F)(F)(F)(F)c1ccc(Nc2nc3ccccc3nc2Cl)cc1` [TD81, 3-chloro-N-(4-(Pentafluorothio)phenyl)quinoxalin-2-amine], the viability at 1 µM in assay [1] is 82.7 ± 5%; in [3] it was 86.9 ± 7.36%; in assay [4] it was 103.4 ± 0.14%; in assay [5], 100 ± 6.2%; in [7], 116 ± 5.9%; in assay [8], 95.6 ± 15.9%. The viability at 1 µM in assay [9] was determined as 100 ± 4.1%. Moreover, the viability at 10 µM in assay [1] is 85.8 ± 0.1%; in assay [3] it was 60.2 ± 11.2%; in [4], 72.4 ± 11.3%; in [5], 82.7 ± 2.44%; in [7], 75.5 ± 3.9%; in assay [8], 69.4 ± 3.4%. Moreover, the viability at 10 µM in [9] was determined as 92 ± 3.8%. Also, the “minimal concentration to disrupt SET-PP2Ac binding” value in assay [2] was more than 200 nM. In addition, the “minimal concentration for PP2A activation” value in assay [6] is reported as more than 200 nM.

As for `COc1ccc(Nc2nc3ccc([N+](=O)[O-])cc3nc2Nc2cccc(O)c2)cc1` [TD612, 3-(2-(4-methoxyphenylamino)-6-nitroquinoxalin-3-ylamino)phenol], the viability at 1 µM was 82.7 ± 2.4% in [1]; 105 ± 3.4% in assay [3]; 107 ± 2.62% in [4]; 107 ± 4.84% in assay [5]; 97.3 ± 13.4% in [7]; 90.6 ± 18.2% in [8]. In [9], the viability at 1 µM came to 69.4 ± 6.8%. The viability at 10 µM in [1] turned out to be 13.4 ± 0.7%; in assay [3], 64.7 ± 4%; in assay [4], 12.9 ± 1.2%; in assay [5], 22.5 ± 11.8%; in assay [7] it was 12.8 ± 0.4%; in [8] it was 10.3 ± 1.2%. For the same molecule, the viability at 10 µM in assay [9] is 38 ± 1.4%. Besides, in assay [6], the “minimal concentration for PP2A activation” value is on record as less than 100 nM.

`O=[N+]([O-])c1ccc2nc(Nc3cccc(Br)c3)c(Nc3cccc(Br)c3)nc2c1` [TD618, N^2,N^3-bis(3-bromophenyl)-6-nitroquinoxaline-2,3-diamine]: the viability at 1 µM came to 48.3 ± 4.8% in assay [1], 36.6 ± 1.6% in assay [7], 53.2 ± 6.3% in assay [8] and 49.6 ± 9.4% in assay [9]. Also, the viability at 10 µM in assay [1] amounted to 31.9 ± 5%; in assay [7], 20.4 ± 3.5%; in assay [8], 26.9 ± 7%; in [9] it was 16.7 ± 1.1%. For the same molecule, in [2], the “minimal concentration to disrupt SET-PP2Ac binding” value is reported as more than 200 nM. Further, the “minimal concentration for PP2A activation” value in [6] is listed as more than 200 nM.

(Values after US10189795B2, “Aryl amine substituted quinoxaline used as anticancer drugs” (priority 2014, dated 2019).)
